EC50 data for 23 compounds are collected here from patent publication EP4389749A1, “SUBSTITUTED 3,7-DIHYDRO-1H-PURINE-2,6-DIONES AND USE THEREOF” (invIOs GmbH, priority 2022, dated 2024).

Assay [1] concerns CD4+ T-cells. Description: Immunostimulation assay with anti-CD3/28 stimulated T-cells, CD69 expression by flow cytometry. Format: cell-based, human. As to conditions: T-cell; purified human CD4+ and CD8+ T-cells, 1 µg/ml anti-CD3, 1 µg/ml anti-CD28, 16 hours, surface FACS; read-out: EC50 CD4+. The protocol: (§1) Selection of potent compounds based on structure activity relation (SAR) using human, anti-CD3/28 stimulated T-cells. Enhanced activation of stimulated T-cells is measured by CD69 expression by flowcytometry.
(§2) White blood cell enriched buffy coats were ordered from the Austrian red cross, diluted with PBS to a total volume of 480 ml, 30 ml transferred to 50ml falcons and 11 ml lymphoprep added. Cell suspensions were centrifuged for 20 min at 2200 rpm and the PBMC containing layer transferred, three times washed with PBS and counted.
(§3) 10^7 PBMCs were magnetically labeled with CD4 and CD8 microbeads according to manufacturer's instructions and separated using autoMACS device. For dose response experiments with purified CD4+CD8+ T-cells 80000 cells were seeded per 96-well flat bottom cell culture dish.
(§4) 10 mM compounds of the invention stocks were further diluted using DMSO and equal amounts transferred to T-cell containing 96-wells. Final concentrations tested were: 30 µM, 10 µM, 3 µM, 1 µM, 0.3 µM, 0.1 µM, 0.03 µM, 0.01 µM, 0.003 µM and 0.001 µM.
(§5) For the stimulation assays 80.000 purified CD4+ and CD8+ T-cells were seeded per 96-well and incubated with 1 µg/ml anti-CD3, 1 µg/ml anti-CD28 and compounds of the invention ranging from 0.001 µM to 30 µM. DMSO only wells served as control to determine minimal T-cell activation upon stimulation and CD3/28 coupled Dynabeads were used to determine the maximal activation of T-cells. Cells were cultured for 16 hours in a humidified incubator at 37 °C and 5 % CO2.
(§6) T-cells were stained for surface antigens (anti-CD4 and anti-CD8) and cell activation markers (anti-CD25 and anti-CD69). Additionally, a fixable viability dye was used to stain viable cells. Staining was performed for 15 minutes and cells analyzed using a Fortessa flow cytometer and FlowJo Software. EC50s were calculated using GraphPad Prism® and a variable slope model (agonist vs. response - variable slope).
A general note: Flow cytometry measures light scatter and fluorescence of single cells or particles in a stream.

Assay [2] relates to CD8+ T-cells. The description is as above. Format: cell-based, human. The following applies: T-cell; purified human CD4+ and CD8+ T-cells, 1 µg/ml anti-CD3, 1 µg/ml anti-CD28, 16 hours, surface FACS; read-out: EC50 CD8+. The protocol:
as §1, §2, §3, §4, §5, §6

SMILES strings stand for the structures.

Consider `COc1cc(-c2nc3c(c(=O)[nH]c(=O)n3C[C@H](C)O)n2C)ccc1OCc1ccccc1` [Compound 61, (S)-8-(4-(benzyloxy)-3-methoxyphenyl)-3-(2-hydroxypropyl)-7-methyl-3,7-dihydro-1H-purine-2,6-dione], for which the EC50 in assay [1] and in assay [2] was 500 to 1000 nM in each case.
Turning to `Cn1c(-c2ccc(OCc3ccc(C(F)F)cc3)c(F)c2)nc2c1c(=O)[nH]c(=O)n2CC(O)C(F)F` (stereo not shown) [Compound 62, 3-(3,3-difluoro-2-hydroxypropyl)-8-(4-((4-(difluoromethyl)benzyl)oxy)-3-fluorophenyl)-7-methyl-3,7-dihydro-1H-purine-2,6-dione], the EC50 (commonly the concentration needed to bring the measured effect to its halfway point) in assay [1] fell in the range of 500 to 1000 nM; in assay [2], 100 to 500 nM.
`Cn1c(-c2ccc(OCc3ccc(C(F)F)cc3)c(F)c2)nc2c1c(=O)[nH]c(=O)n2CC(O)CF` (stereo not shown) [Compound 63, 8-(4-((4-(difluoromethyl)benzyl)oxy)-3-fluorophenyl)-3-(3-fluoro-2-hydroxypropyl)-7-methyl-3,7-dihydro-1H-purine-2,6-dione]: the half-maximal effective concentration (EC50) in assay [1] and in assay [2] was 100 to 500 nM each time.
Take `Cn1c(-c2ccc(OCc3ccc(C(F)F)cc3)c(F)c2)nc2c1c(=O)[nH]c(=O)n2CC(O)C(F)(F)F` (stereo not shown) [Compound 64, 8-(4-((4-(difluoromethyl)benzyl)oxy)-3-fluorophenyl)-7-methyl-3-(3,3,3-trifluoro-2-hydroxypropyl)-3,7-dihydro-1H-purine-2,6-dione]: the concentration giving a half-maximal response (EC50) is over 5000 nM in assay [1] and 1000 to 5000 nM in assay [2].
Consider `CC(O)Cn1c(=O)[nH]c(=O)c2c1nc(-c1ccc(OCc3ccc(C(F)F)cc3)c(F)c1)n2C` (stereo not shown) [Compound 65, 8-(4-((4-(difluoromethyl)benzyl)oxy)-3-fluorophenyl)-3-(2-hydroxypropyl)-7-methyl-3,7-dihydro-1H-purine-2,6-dione], for which the concentration giving a half-maximal response (EC50) is 500 to 1000 nM in assay [1] and 100 to 500 nM in assay [2].
The matching figures for `COc1cc(-c2nc3c(c(=O)[nH]c(=O)n3CC(CO)C(F)F)n2C)ccc1OCc1ccc(C(F)F)cc1` (stereo not shown) [Compound 66, 3-(3,3-difluoro-2-(hydroxymethyl)propyl)-8-(4-((4-(difluoromethyl)benzyl)oxy)-3-methoxyphenyl)-7-methyl-3,7-dihydro-1H-purine-2,6-dione]: under 100 nM and under 100 nM.
The like results for `Cc1ccc(COc2ccc(-c3nc4c(c(=O)[nH]c(=O)n4CC(CO)C(F)F)n3C)cc2F)cc1` (stereo not shown) [Compound 67, 3-(3,3-difluoro-2-(hydroxymethyl)propyl)-8-(3-fluoro-4-((4-methylbenzyl)oxy)phenyl)-7-methyl-3,7-dihydro-1H-purine-2,6-dione] were, in that order, under 100 nM and 100 to 500 nM.
For the compound `COc1cc(-c2nc3c(c(=O)[nH]c(=O)n3CC(O)C(F)F)n2C)ccc1OCc1ccccc1` (stereo not shown) [Compound 68, 8-(4-(benzyloxy)-3-methoxyphenyl)-3-(3,3-difluoro-2-hydroxypropyl)-7-methyl-3,7-dihydro-1H-purine-2,6-dione], the half-maximal effective concentration (EC50) in assay [1] and in assay [2] was 100 to 500 nM each time.
On to `COc1cc(-c2nc3c(c(=O)[nH]c(=O)n3CC(O)CO)n2C)ccc1OCc1ccc(C(F)F)cc1` (stereo not shown) [Compound 72, 8-(4-((4-(difluoromethyl)benzyl)oxy)-3-methoxyphenyl)-3-(2,3-dihydroxypropyl)-7-methyl-3,7-dihydro-1H-purine-2,6-dione], for which the concentration giving a half-maximal response (EC50) in assay [1] and in assay [2] was 1000 to 5000 nM each time.
With `COc1cc(-c2nc3c(c(=O)[nH]c(=O)n3CC(O)CF)n2C)ccc1OCc1ccc(C(F)F)cc1` (stereo not shown) [Compound 73, 8-(4-((4-(difluoromethyl)benzyl)oxy)-3-methoxyphenyl)-3-(3-fluoro-2-hydroxypropyl)-7-methyl-3,7-dihydro-1H-purine-2,6-dione], the half-maximal effective concentration (EC50) in assay [1] and in assay [2] was 500 to 1000 nM in each case.
As to `COc1cc(-c2nc3c(c(=O)[nH]c(=O)n3CC(C)CO)n2C)ccc1OCc1ccc(C(F)F)cc1` (stereo not shown) [Compound 74, 8-(4-((4-(difluoromethyl)benzyl)oxy)-3-methoxyphenyl)-3-(3-hydroxy-2-methylpropyl)-7-methyl-3,7-dihydro-1H-purine-2,6-dione], the concentration for a half-maximal effect (EC50) in assay [1] and in assay [2] was 100 to 500 nM each time.
As for `COc1cc(-c2nc3c(c(=O)[nH]c(=O)n3CC(O)C(F)(F)F)n2C)ccc1OCc1ccc(C(F)F)cc1` (stereo not shown) [Compound 75, 8-(4-((4-(difluoromethyl)benzyl)oxy)-3-methoxyphenyl)-7-methyl-3-(3,3,3-trifluoro-2-hydroxypropyl)-3,7-dihydro-1H-purine-2,6-dione], the EC50 in assay [1] and in assay [2] was 100 to 500 nM each time.
`Cc1ccc(COc2ccc(-c3nc4c(c(=O)[nH]c(=O)n4CC(C)O)n3C)cc2OC(F)F)cc1` (stereo not shown) [Compound 76, 8-(3-(difluoromethoxy)-4-((4-methylbenzyl)oxy)phenyl)-3-(2-hydroxypropyl)-7-methyl-3,7-dihydro-1H-purine-2,6-dione]: the concentration giving a half-maximal response (EC50) in assay [1] and in assay [2] was under 100 nM throughout.
Consider `Cc1ccc(COc2ccc(-c3nc4c(c(=O)[nH]c(=O)n4CC(C)O)n3C)cc2)cc1` (stereo not shown) [Compound 77, 3-(2-hydroxypropyl)-7-methyl-8-(4-((4-methylbenzyl)oxy)phenyl)-3,7-dihydro-1H-purine-2,6-dione], for which the EC50 is 500 to 1000 nM in assay [1] and 100 to 500 nM in assay [2].
The matching figures for `CC(O)Cn1c(=O)[nH]c(=O)c2c1nc(-c1ccc(OCc3ccccc3)cc1)n2C` (stereo not shown) [Compound 78, 8-(4-(benzyloxy)phenyl)-3-(2-hydroxypropyl)-7-methyl-3,7-dihydro-1H-purine-2,6-dione]: 500 to 1000 nM and 100 to 500 nM.
On to `COc1cc(-c2nc3c(c(=O)[nH]c(=O)n3CC(O)C(F)F)n2C)ccc1OCc1ccc(C(F)F)cc1` (stereo not shown) [Compound 79, 3-(3,3-difluoro-2-hydroxypropyl)-8-(4-((4-(difluoromethyl)benzyl)oxy)-3-methoxyphenyl)-7-methyl-3,7-dihydro-1H-purine-2,6-dione], for which the EC50 in assay [1] and in assay [2] was 100 to 500 nM in each case.
Turning to `Cc1ccc(COc2ccc(-c3nc4c(c(=O)[nH]c(=O)n4CC(O)C(F)F)n3C)cc2F)cc1` (stereo not shown) [Compound 80, 3-(3,3-difluoro-2-hydroxypropyl)-8-(3-fluoro-4-((4-methylbenzyl)oxy)phenyl)-7-methyl-3,7-dihydro-1H-purine-2,6-dione], the EC50 in assay [1] and in assay [2] was under 100 nM throughout.
On to `CC(O)Cn1c(=O)[nH]c(=O)c2c1nc(-c1ccc(Oc3ccc(Cl)cc3)c(OC(F)F)c1)n2C` (stereo not shown) [Compound 81, 8-(4-(4-chlorophenoxy)-3-(difluoromethoxy)phenyl)-3-(2-hydroxypropyl)-7-methyl-3,7-dihydro-1H-purine-2,6-dione], for which the concentration giving a half-maximal response (EC50) was 100 to 500 nM in assay [1] and under 100 nM in assay [2].
The matching figures for `COc1cc(-c2nc3c(c(=O)[nH]c(=O)n3CC(C)O)n2C)ccc1OCc1ccc(OC(F)(F)F)cc1` (stereo not shown) [Compound 82, 3-(2-hydroxypropyl)-8-(3-methoxy-4-((4-(trifluoromethoxy)benzyl)oxy)phenyl)-7-methyl-3,7-dihydro-1H-purine-2,6-dione]: 100 to 500 nM and 100 to 500 nM.
The matching figures for `COc1cc(-c2nc3c(c(=O)[nH]c(=O)n3CC(O)C(F)F)n2C)ccc1OCc1ccc(OC(F)F)cc1` (stereo not shown) [Compound 83, 3-(3,3-difluoro-2-hydroxypropyl)-8-(4-((4-(difluoromethoxy)benzyl)oxy)-3-methoxyphenyl)-7-methyl-3,7-dihydro-1H-purine-2,6-dione]: under 100 nM and under 100 nM.
The matching figures for `COc1cc(-c2nc3c(c(=O)[nH]c(=O)n3CC(O)C(F)F)n2C)ccc1OCc1ccc(F)cc1` (stereo not shown) [Compound 84, 3-(3,3-difluoro-2-hydroxypropyl)-8-(4-((4-fluorobenzyl)oxy)-3-methoxyphenyl)-7-methyl-3,7-dihydro-1H-purine-2,6-dione]: 100 to 500 nM and under 100 nM.
As to `COc1cc(-c2nc3c(c(=O)[nH]c(=O)n3CC(C)O)n2C)ccc1OCc1ccc(OC(F)F)cc1` (stereo not shown) [Compound 85, 8-(4-((4-(difluoromethoxy)benzyl)oxy)-3-methoxyphenyl)-3-(2-hydroxypropyl)-7-methyl-3,7-dihydro-1H-purine-2,6-dione], the half-maximal effective concentration (EC50) in assay [1] and in assay [2] was 100 to 500 nM in each case.
For `COc1cc(-c2nc3c(c(=O)[nH]c(=O)n3CC(C)O)n2C)ccc1OCc1ccc(C(F)F)cc1` (stereo not shown) [Compound 86, 8-(4-((4-(difluoromethyl)benzyl)oxy)-3-methoxyphenyl)-3-(2-hydroxypropyl)-7-methyl-3,7-dihydro-1H-purine-2,6-dione], the 50% effective concentration (EC50) in assay [1] and in assay [2] was 100 to 500 nM in each case.
